Measurements reported in the NIST ThermoML archive (doi:10.1016/j.fluid.2018.11.001).
Numbers after ± are expanded uncertainties.

Settings: Crystal; visual observation

Normal melting temperature [°C]	SMILES
54.2 ± 0.7	CCn1cc[n+](C)c1.Cc1ccc(S(=O)(=O)[O-])cc1 [1-ethyl-3-methylimidazolium 4-methylbenzenesulfonate]
77.1 ± 0.7	CCn1cc[n+](C)c1.[Br-] [1-ethyl-3-methylimidazolium bromide]
